Reference: US10017487B2, “Fused heterocyclic compound” (Takeda Pharmaceutical Company Limited, priority 2015, dated 2018)
Where a name gives a salt, the structure may show the parent alone.

Legend:
[1] = molecular target: T1, Human recombinant enteropeptidase (Homo sapiens, UniProt P98073); assay: Human enteropeptidase inhibitory activity; assay type: biochemical; conditions: 3.3 μM test compound; fluorescence intensity at 2 hours after start of reaction; read-out: Inhibition rate at 3.3 μM
T1 construct: purchased ITSI-Biosciences LLC #REN-260
T1 sequence (P98073 whole entry): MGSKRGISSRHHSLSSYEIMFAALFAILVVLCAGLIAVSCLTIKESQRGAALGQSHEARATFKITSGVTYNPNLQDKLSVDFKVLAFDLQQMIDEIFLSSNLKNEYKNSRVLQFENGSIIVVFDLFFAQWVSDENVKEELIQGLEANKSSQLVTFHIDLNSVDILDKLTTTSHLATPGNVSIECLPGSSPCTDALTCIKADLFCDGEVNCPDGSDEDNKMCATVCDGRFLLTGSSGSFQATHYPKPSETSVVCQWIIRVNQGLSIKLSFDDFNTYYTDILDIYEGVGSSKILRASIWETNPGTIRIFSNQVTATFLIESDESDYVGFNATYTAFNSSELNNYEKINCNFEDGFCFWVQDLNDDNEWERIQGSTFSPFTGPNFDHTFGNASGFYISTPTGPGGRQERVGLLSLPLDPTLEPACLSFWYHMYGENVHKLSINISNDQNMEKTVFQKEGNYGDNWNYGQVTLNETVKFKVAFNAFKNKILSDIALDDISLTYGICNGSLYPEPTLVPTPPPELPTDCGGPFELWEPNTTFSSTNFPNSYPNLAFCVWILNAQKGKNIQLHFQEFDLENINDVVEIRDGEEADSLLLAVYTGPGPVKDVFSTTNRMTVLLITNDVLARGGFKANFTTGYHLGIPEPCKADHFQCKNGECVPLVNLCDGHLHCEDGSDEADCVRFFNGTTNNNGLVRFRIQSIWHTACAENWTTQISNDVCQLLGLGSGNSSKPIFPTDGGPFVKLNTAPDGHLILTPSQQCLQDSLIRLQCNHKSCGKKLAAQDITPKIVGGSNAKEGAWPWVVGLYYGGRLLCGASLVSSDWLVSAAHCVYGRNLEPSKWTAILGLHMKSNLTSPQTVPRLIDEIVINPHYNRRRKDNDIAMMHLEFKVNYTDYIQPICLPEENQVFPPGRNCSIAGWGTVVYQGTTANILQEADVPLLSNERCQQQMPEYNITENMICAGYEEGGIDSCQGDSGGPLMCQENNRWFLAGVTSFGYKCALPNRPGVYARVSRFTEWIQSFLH
Protocol: Human recombinant enteropeptidase (#REN-260, ITSI-Biosciences LLC) was diluted with an assay buffer (50 mM Tricine, pH 8.0, 0.01 (w/v) %, Tween 20, 10 mM CaCl2) to prepare a 24 mU/mL enzyme solution. Subsequently, 5FAM-Abu-Gly-Asp-Asp-Asp-Lys-Ile-Val-Gly-Gly-Lys(CPQ2)-Lys-Lys-NH2 (purity: 97.2%, CPC Scientific Inc., SEQ ID NO: 1) was diluted with the assay buffer to prepare a 2.1 μM substrate solution. A test compound is dissolved in DMSO into a 1 mM solution, and the solution was diluted by 100-fold with the assay buffer to give a compound solution. To a 384-well black plate (#784076, Greiner Bio-One), 5 μL of the compound solution and 5 μL of the substrate solution were added and mixed, and 5 μL of the enzyme solution was then added to the mixture, followed by mixing to start the reaction. The fluorescence intensity was measured with a fluorescence plate reader EnVision (The Perkin-Elmer Corp.) at an excitation wavelength of 485 nm and a fluorescence wavelength of 535 nm. The same reaction as above except that the test compound was not contained was performed (test compound non-addition group). Furthermore, the same reaction as above except that the test compound and the enzyme were not contained was performed (control group). The inhibition rate was calculated using the fluorescence intensity at 2 hours after the start of the reaction by the following expression: Inhibition rate (%)=(1-((fluorescence intensity of test compound addition group)−(fluorescence intensity of control group))/((fluorescence intensity of test compound non-addition group)−(fluorescence intensity of control group)))×100

DIO mouse = assay: Anti-obesity effect test using DIO mouse; assay type: in vivo; conditions: DIO mice, group average
Protocol: Diet-induced obesity (DIO) mice (D12079B diet, male, 32-week old) were orally administered with a 0.5% methyl cellulose suspension containing a test compound (30 mg/kg) (compound administration group, six mice per group) or a 0.5% methyl cellulose suspension (compound non-administration group (vehicle), six mice per group) once a day for eight days. The averages of the body weights at the start of administration and after continuous administration for eight days are shown below.

HFD-fed mouse = assay: Fecal protein concentration-increasing test using HFD-fed mouse; assay type: in vivo; conditions: HFD-fed mice, 10 mg/kg oral, whole feces of first day of administration, group average
Protocol: High fat diet-fed (HFD-fed) mice (D12079B diet, male, 19-week old) were orally administered with a 0.5% methyl cellulose suspension containing a test compound (10 mg/kg) (compound administration group, six mice per group) or a 0.5% methyl cellulose suspension (compound non-administration group (vehicle), five mice per group), and whole feces were collected on the first day of administration. Dried feces were dissolved in 0.5 N NaOH, followed by centrifugation at 12,000 rpm. The protein concentration in the supernatant was then quantitatively measured (Lowry method), and the amount of protein contained in 1 g of feces was calculated as the fecal protein concentration (mg/g feces). The average of each group is shown below.

Compound	inhibition at 3.3 µM [1] [%]	Body weight (g) After continuous administration for 8 days (DIO mouse; 30 mg/kg oral once a day for eight days) [g]	Body weight (g) At start of administration (DIO mouse; 30 mg/kg oral once a day, baseline) [g]	Fecal protein concentration (HFD-fed mouse) [mg/g feces]
N=C(N)Nc1ccc(C(=O)Oc2cc3c(c(C(=O)NCS(=O)(=O)O)c2)CCO3)cc1 [Example 3, (((6-((4-carbamimidamindobenzoyl)oxy)-2,3-dihydro-1-benzofuran-4-yl)carbonyl)amino)methanesulfonic acid]	101			
N=C(N)Nc1ccc(C(=O)Oc2cc3c(c(C(=O)NCCS(=O)(=O)O)c2)CCO3)cc1 [Example 1, 2-(((6-((4-Carbamimidamidobenzoyl)oxy)-2,3-dihydro-1-benzofuran-4-yl)carbonyl)amino)ethanesulfonic acid]	101	42.8	43.5	188.8
N=C(N)Nc1ccc(C(=O)Oc2cc3c(c(C4=NOC(CC(=O)O)(C(=O)O)C4)c2)CCO3)cc1 (stereo not drawn) [Example 6, 3-(6-((4-Carbamimidamidobenzoyl)oxy)-2,3-dihydro-1-benzofuran-4-yl)-5-(carboxymethyl)-4,5-dihydro-1,2-oxazole-5-carboxylic acid]	101			
N=C(N)Nc1ccc(C(=O)Oc2cc3c(c(C(=O)NCP(=O)(O)O)c2)CCO3)cc1 [Example 4, ((((6-((4-Carbamimidamidobenzoyl)oxy)-2,3-dihydro-1-benzofuran-4-yl)carbonyl)amino)methyl)phosphonic acid hydrochloride]	101			
N=C(N)Nc1ccc(C(=O)Oc2cc3c(c(C(=O)NCCCS(=O)(=O)O)c2)CCO3)cc1 [Example 2, 3-(((6-((4-carbamimidamindobenzoyl)oxy)-2,3-dihydro-1-benzofuran-4-yl)carbonyl)amino)propane-1-sulfonic acid]	101			
CC1(C)Cc2c(cc(OC(=O)c3ccc(NC(=N)N)cc3)cc2C2=NOC(CC(=O)O)(C(=O)O)C2)O1 (stereo not drawn) [Example 5, 3-(6-((4-carbamimidamindobenzoyl)oxy)-2,2-dimethyl-2,3-dihydro-1-benzofuran-4-yl)-5-(carboxymethyl)-4,5-dihydro-1,2-oxazole-5-carboxylic acid]	100			
